Type in all cases: binding
The target in experiment [1] is T1, ADORA2B (Homo sapiens, UniProt P29275).
T1 construct: purchased Promega (in-house HiBiT-GPCR construct library, NanoBRET)
T1 sequence (P29275 1-332): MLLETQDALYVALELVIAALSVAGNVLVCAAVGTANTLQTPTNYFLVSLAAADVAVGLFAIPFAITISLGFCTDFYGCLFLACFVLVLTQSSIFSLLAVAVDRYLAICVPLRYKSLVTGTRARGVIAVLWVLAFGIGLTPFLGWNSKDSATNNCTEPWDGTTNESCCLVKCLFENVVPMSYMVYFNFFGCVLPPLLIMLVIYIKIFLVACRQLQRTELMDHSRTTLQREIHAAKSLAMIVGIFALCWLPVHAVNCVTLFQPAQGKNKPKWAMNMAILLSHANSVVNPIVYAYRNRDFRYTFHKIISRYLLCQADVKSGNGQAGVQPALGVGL
The experiment in a line: NanoBRET screen HiBiT-ADORA2B in HEK293. The procedure: (§1) Each tracer candidate was screened across the entire library of HiBiT-GPCR constructs using NanoBRET as the detection modality. As depicted in Figure 4A, the specificity of interactions was evaluated through decrease in BRET due to competitive displacement of a bound tracer by excess parental compound. Each tracer was analyzed for binding to each HiBiT-GPCR fusion in the absence and in the presence of competing parental compound. Briefly, HEK293 cells were transfected with HiBiT-GPCR constructs diluted into promoterless DNA to reduce expression and maximize translocation to the cell surface. Each tracer candidate was then screened at concentrations of 1 μM and 0.1 μM across cells expressing these fusions. Cells were treated for 1.5 h with tracer either alone or in the presence of 20 μM competing parental compound (i.e., control). BRET was measured upon addition of purified LgBiT and subsequent complementation with HiBiT genetically fused to a GPCR. The specificity of interactions was assessed through a decrease in BRET signal due to competitive displacement of the bound tracer. To further gauge the robustness of these interactions, the fold response over the control (i.e., BRETtracer/BRETcontrol) was calculated. We chose a 1.5-fold response, which translates to ≥7-fold signal over noise as the minimal threshold required to score an interaction as positive. […]. Below we highlight the screening results obtained for our exemplary fluorescent tracers based on Clozapine, Amitriptyline and AZD1283.
(§2) HiBiT-GPCR DNA constructs were diluted in 10 mM Tris pH 8 to a final concentration of 0.01 μg/μL, arrayed in 96-well plates and stored at −20 °C. For transfection, HEK293 cells were suspended in Opti-MEM (without phenol red) supplemented with 2% fetal bovine serum (Seradigm) and 100 units/mL penicillin–streptomycin (Gibco) at a final concentration of 220,000 cells/mL and dispensed into white 96-well plates at 90 μL/well. Subsequent transfections and screens were carried using an Agilent Bravo Automated Liquid Handling Platform. First, the 96-well HiBiT DNA arrays were diluted 25-fold in Opti-MEM (without serum or phenol red) to a final concentration of 0.0004 μg/μL and 20 μL of the diluted DNAs were transferred into new 96-well plates. Next, promoterless carrier DNA (1 μg/μL) was diluted 25-fold (0.04 μg/μL) and then dispensed into the diluted arrays at 20 μL/well. Following brief mixing, Viafect transfection reagent (Promega) diluted 16-fold into Opti-MEM was dispensed into the plates at 40 μL/well. After mixing by pipetting, plates were incubated for 10 min on the pipetting station deck. The DNA-transfection reagent complexes were then added to plates containing cells. To facilitate the screen, 10 μL of DNA-transfection reagent complexes were added in duplicates to the top 4 and bottom 4 rows, resulting in two identical 48-well arrays per plate. Plates with transfected cells were incubated for 18–20 h at 37 °C/5% CO2. A screen of each tracer across the entire library using two different concentrations requires duplicate plates of transfected cells. Depending on the number of tracers being screened, transfections can be scaled up using the same ratios. The next day, for each tracer, four 20× screening solutions in tracer dilution buffer (Promega) were prepared: two duplicates at final concentration of 20 μM and two duplicates at a final concentration of 2 μM. A competing unmodified compound was added to one of each duplicate at a final concentration of 400 μM. The four resulting solutions were diluted 4-fold in Opti-MEM without serum or phenol red to generate 5× solutions (5 µM and 0.5 µM tracer +/− 100 μM competing compound). To screen the library, a BioTek MultiFlo FX liquid dispenser was used to dispense 22.5 µL of tracer solution to the top 4 rows and 22.5 µL tracer + competing compound solution to the 4 bottom rows. Plates were briefly mixed on an orbital shaker and incubated for 1.5 h at room temperature. […]
(In general: In BRET a luciferase serves as donor, and the signal depends on an acceptor being close.)

Experiment [2] deals with T2, C3AR1 (Homo sapiens, UniProt Q16581).
T2 construct: purchased Promega (in-house HiBiT-GPCR construct library, NanoBRET)
T2 sequence (Q16581 1-482): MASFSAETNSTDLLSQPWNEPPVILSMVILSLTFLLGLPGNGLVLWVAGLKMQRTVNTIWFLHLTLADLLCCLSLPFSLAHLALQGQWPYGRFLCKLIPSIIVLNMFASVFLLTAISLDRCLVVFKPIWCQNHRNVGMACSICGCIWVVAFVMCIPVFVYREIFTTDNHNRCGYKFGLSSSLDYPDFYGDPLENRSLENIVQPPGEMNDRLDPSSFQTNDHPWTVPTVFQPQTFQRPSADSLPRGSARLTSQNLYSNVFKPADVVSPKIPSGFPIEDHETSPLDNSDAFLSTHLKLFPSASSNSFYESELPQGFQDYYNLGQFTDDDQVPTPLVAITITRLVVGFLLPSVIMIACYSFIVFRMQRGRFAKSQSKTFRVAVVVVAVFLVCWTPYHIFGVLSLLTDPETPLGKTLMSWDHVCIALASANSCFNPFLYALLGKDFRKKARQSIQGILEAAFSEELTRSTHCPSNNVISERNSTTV
The experiment in a line: NanoBRET screen HiBiT-C3AR1 in HEK293. The procedure:
as §1, §2

Experiment [3] has as its target T3, CYSLTR2 (Homo sapiens, UniProt Q9NS75).
T3 construct: purchased Promega (in-house HiBiT-GPCR construct library, NanoBRET)
T3 sequence (Q9NS75 1-346): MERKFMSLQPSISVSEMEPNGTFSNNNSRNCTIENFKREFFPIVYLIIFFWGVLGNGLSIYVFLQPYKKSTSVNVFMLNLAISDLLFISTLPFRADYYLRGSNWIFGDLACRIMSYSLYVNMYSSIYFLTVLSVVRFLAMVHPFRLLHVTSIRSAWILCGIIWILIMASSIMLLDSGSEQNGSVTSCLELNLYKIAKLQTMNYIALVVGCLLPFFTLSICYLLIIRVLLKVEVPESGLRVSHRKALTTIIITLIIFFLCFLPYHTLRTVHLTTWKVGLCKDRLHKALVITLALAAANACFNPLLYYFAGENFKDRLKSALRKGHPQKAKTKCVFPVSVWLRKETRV
The experiment in a line: NanoBRET screen HiBiT-CYSLTR2 in HEK293. The procedure: as §1, §2

The mark [4] stands for this setting: tracer at 0.1μM, listed as amitriptyline-b-2-NB590.

Take `Cc1nc2n(c(=O)c1CCN1CCC(c3noc4cc(F)ccc34)CC1)CCCC2OC(=O)NCCOCCOCCOCCOCCNC(=O)CCc1ccc2n1[B-](F)(F)[N+]1=C(c3ccc[nH]3)C=CC1=C2` (centres unmarked) [Risperidone-2-NB590]: the “NanoBRET Fold Response” value in experiment [1] (ADORA2B, tracer 0.1μM) came to 0.94; in experiment [1] (ADORA2B, tracer 1μM), 1.05; in experiment [2] (C3AR1, tracer 0.1μM) it was 0.93; in experiment [2] (C3AR1, tracer 1μM), 0.98; in experiment [3] (CYSLTR2, tracer 0.1μM) it was 0.97; in experiment [3] (CYSLTR2, tracer 1μM) it was 1.15.

On to `O=C(CCOCCOCCOCCOCCNC(=O)CCc1ccc2n1[B-](F)(F)[N+]1=C(c3ccc[nH]3)C=CC1=C2)NCCCN1CCN(C2=Nc3cc(Cl)ccc3Nc3ccccc32)CC1` [Clozapine-a-2-NB590], for which the “NanoBRET Fold Response” value is 1.01 in experiment [1] (ADORA2B, 0.1μM tracer); 0.67 in experiment [1] (ADORA2B, 1μM tracer); 1.18 in experiment [2] (C3AR1, 0.1μM tracer); 1.21 in experiment [2] (C3AR1, 1μM tracer); 0.99 in experiment [3] (CYSLTR2, 0.1μM tracer); 1.03 in experiment [3] (CYSLTR2, 1μM tracer).

As for `COc1ccc2[nH]c(-c3ccc(CNC(=O)CCOCCOCCOCCOCCNC(=O)CCc4ccc5n4[B-](F)(F)[N+]4=C(c6ccc[nH]6)C=CC4=C5)cc3)c(CCNC(C)=O)c2n1` [AzomelatoninICO9-2-NB590], the “NanoBRET Fold Response” value in experiment [1] (0.1μM tracer) is on record as 0.82; in experiment [1] (1μM tracer), 1.21; in experiment [2] (0.1μM tracer) it was 0.78; in experiment [2] (1μM tracer), 0.87; in experiment [3] (0.1μM tracer) it was 1.03; in experiment [3] (1μM tracer), 1.06.

With `CN1CCN(C2=Nc3cc(Cl)ccc3Nc3ccc(CNC(=O)CCOCCOCCOCCOCCNC(=O)CCc4ccc5n4[B-](F)(F)[N+]4=C(c6ccc[nH]6)C=CC4=C5)cc32)CC1` [Clozapine-b-2-NB590], the “NanoBRET Fold Response” value in experiment [1] (ADORA2B, 0.1μM tracer) turned out to be 1.07; in experiment [1] (ADORA2B, 1μM tracer), 0.99; in experiment [2] (C3AR1, 0.1μM tracer) it was 0.99; in experiment [2] (C3AR1, 1μM tracer), 1.02; in experiment [3] (CYSLTR2, 0.1μM tracer), 1.01; in experiment [3] (CYSLTR2, 1μM tracer), 1.03.

As to `COc1ccccc1N1CCN(CCCCN2C(=O)c3ccc(CNC(=O)CCOCCNC(=O)c4ccc(CNC(=O)CCc5ccc6n5[B-](F)(F)[N+]5=C(c7ccc[nH]7)C=CC5=C6)cc4)cc3C2=O)CC1` [NAN-190-3-NB590], the “NanoBRET Fold Response” value is 0.94 in experiment [1] (ADORA2B, tracer 0.1μM); 1.30 in experiment [1] (ADORA2B, tracer 1μM); 0.90 in experiment [2] (C3AR1, tracer 0.1μM); 0.93 in experiment [2] (C3AR1, tracer 1μM); 1.11 in experiment [3] (CYSLTR2, tracer 0.1μM); 1.31 in experiment [3] (CYSLTR2, tracer 1μM).

Turning to `N#CN=C(NCCCOc1cccc(CN2CCCCC2)c1)NCCNC(=O)CCOCCOCCOCCOCCNC(=O)CCc1ccc2n1[B-](F)(F)[N+]1=C(c3ccc[nH]3)C=CC1=C2` [Aminopotentidine-2-NB590], the “NanoBRET Fold Response” value in experiment [1] (ADORA2B, tracer 0.1μM) came to 1.37; in experiment [1] (ADORA2B, tracer 1μM) it was 1.06; in experiment [2] (C3AR1, tracer 0.1μM) it was 0.99; in experiment [2] (C3AR1, tracer 1μM), 1.04; in experiment [3] (CYSLTR2, tracer 0.1μM), 1.05; in experiment [3] (CYSLTR2, tracer 1μM) it was 0.98.

In the case of `CN(C)CCC=C1c2ccccc2CCc2ccc(C(=O)NCCNC(=O)CCOCCOCCOCCOCCNC(=O)CCc3ccc4n3[B-](F)(F)[N+]3=C(c5ccc[nH]5)C=CC3=C4)cc21` [Amitriptyline-b-2-NB590], the “NanoBRET Fold Response” value in experiment [1] (setting [4]) was 1.40; in experiment [2] (setting [4]), 1.19; in experiment [2] (tracer at 1μM) it was 1.00; in experiment [3] (CYSLTR2, tracer 0.1μM) it was 0.95; in experiment [3] (CYSLTR2, tracer 1μM) it was 1.04.

Consider `O=C(CCOCCOCCOCCOCCNC(=O)CCc1ccc2n1[B-](F)(F)[N+]1=C(c3ccc[nH]3)C=CC1=C2)NCCCN1CCN(C2=Nc3ccccc3Oc3ccc(Cl)cc32)CC1` [Loxapine-a-2-NB590], for which the “NanoBRET Fold Response” value came to 1.41 in experiment [1] (ADORA2B, tracer 0.1μM); 0.62 in experiment [1] (ADORA2B, tracer 1μM); 0.97 in experiment [2] (C3AR1, tracer 0.1μM); 1.08 in experiment [2] (C3AR1, tracer 1μM); 0.91 in experiment [3] (CYSLTR2, tracer 0.1μM); 1.02 in experiment [3] (CYSLTR2, tracer 1μM).

With `CCCn1c(=O)c2[nH]c(-c3ccc(OCC(=O)NCCNC(=O)CCOCCNC(=O)c4ccc(CNC(=O)CCc5ccc6n5[B-](F)(F)[N+]5=C(c7ccc[nH]7)C=CC5=C6)cc4)cc3)nc2n(CCC)c1=O` [XAC-3-NB590], the “NanoBRET Fold Response” value in experiment [1] (ADORA2B, tracer 0.1μM) is 8.09; in experiment [1] (ADORA2B, tracer 1μM), 3.98; in experiment [2] (C3AR1, tracer 0.1μM), 1.15; in experiment [2] (C3AR1, tracer 1μM), 0.96; in experiment [3] (CYSLTR2, tracer 0.1μM), 1.08; in experiment [3] (CYSLTR2, tracer 1μM), 1.01.

Turning to `CCOC(=O)c1cc(C#N)c(N2CCC(C(=O)NS(=O)(=O)Cc3ccccc3/C=C/C(=O)NCCNC(=O)CCc3ccc4n3[B-](F)(F)[N+]3=C(c5ccc[nH]5)C=CC3=C4)CC2)nc1C` [AZD1283-1-NB590], the “NanoBRET Fold Response” value in experiment [1] (ADORA2B, 0.1μM) came to 0.94; in experiment [1] (ADORA2B, 1μM) it was 0.93; in experiment [2] (C3AR1, 0.1μM) it was 1.10; in experiment [2] (C3AR1, 1μM), 1.09; in experiment [3] (CYSLTR2, 0.1μM), 1.07; in experiment [3] (CYSLTR2, 1μM), 0.97.

The values above are taken from article PMC8151276, “An Integrated Approach toward NanoBRET Tracers for Analysis of GPCR Ligand Engagement” (Molecules, 2021).
